Experimental findings from publication PMC7241567 (Journal of Enzyme Inhibition and Medicinal Chemistry, 2020) are described below.

Common to all, as to type: biochemical
Test [1] has as its target FLT3-ITD (Homo sapiens, UniProt P36888, ITD). As to the kind of experiment: Reaction Biology Kinase HotSpot radiometric kinase assay.
Test [2] has as its target T1, c-MET (Homo sapiens, UniProt P08581).
T1 construct: purchased Reaction Biology Corp. (Kinase HotSpot service)
The test is described as above.

Test [3] addresses T2, ALK (Homo sapiens, UniProt Q9UM73).
T2 construct: purchased Reaction Biology Corp. (Kinase HotSpot service)
The description is as above.

The target of test [4] is T3, LCK (Homo sapiens, UniProt P06239).
T3 construct: purchased Reaction Biology Corp. (Kinase HotSpot service)
The test is described as above.

Test [5] concerns the target T4, FYN (Homo sapiens, UniProt P06241).
T4 construct: purchased Reaction Biology Corp. (Kinase HotSpot service)
The test is described as above.

Test [6] has as its target T5, FLT1/VEGFR1 (Homo sapiens, UniProt P17948).
T5 construct: purchased Reaction Biology Corp. (Kinase HotSpot service)
The description is as above.

Test [7] concerns the target T6, MEK1 (Homo sapiens, UniProt Q02750).
T6 construct: purchased Reaction Biology Corp. (Kinase HotSpot service)
Described as above.

The target in test [8] is T7, RON/MST1R (Homo sapiens, UniProt Q04912).
T7 construct: purchased Reaction Biology Corp. (Kinase HotSpot service)
Described as above.

In test [9] the target is T8, JNK3 (Homo sapiens, UniProt P53779).
T8 construct: purchased Reaction Biology Corp. (Kinase HotSpot service)
The test is described as above.

In test [10] the target is T9, PKA (Homo sapiens, UniProt P17612).
T9 construct: purchased Reaction Biology Corp. (Kinase HotSpot service)
The description is as above.

Test [11] addresses T10, RIPK3 (Homo sapiens, UniProt Q9Y572).
T10 construct: purchased Reaction Biology Corp. (Kinase HotSpot service)
Described as above. The note with it: 10 µM.

Test [12] has as its target T11, LYN (Homo sapiens, UniProt P07948).
T11 construct: purchased Reaction Biology Corp. (Kinase HotSpot service)
The test is described as above.

For test [13], the target named is T12, FGFR3 (Homo sapiens, UniProt P22607).
T12 construct: purchased Reaction Biology Corp. (Kinase HotSpot service)
The test is described as above.

For test [14], the target named is T13, CAMKK1 (Homo sapiens, UniProt Q8N5S9).
T13 construct: purchased Reaction Biology Corp. (Kinase HotSpot service)
The description is as above.

Test [15] deals with FLT3 (F594_R595 ins EY) (Homo sapiens, UniProt P36888). As to the kind of experiment: Enzymatic activity against FLT3 mutants.
For test [16], the target named is T14, ERK1 (Homo sapiens, UniProt P27361).
T14 construct: purchased Reaction Biology Corp. (Kinase HotSpot service)
As to the kind of experiment: Reaction Biology Kinase HotSpot radiometric kinase assay. The note with it: 10 µM.

Test [17] deals with T15, BTK (Homo sapiens, UniProt Q06187).
T15 construct: purchased Reaction Biology Corp. (Kinase HotSpot service)
The test is described as above.

Test [18] concerns the target T16, AXL (R499C) (Homo sapiens, UniProt P30530, R499C).
T16 construct: purchased Reaction Biology Corp. (Kinase HotSpot service)
The description is as above.

Test [19] relates to other kinases including FMS and cKit. The test is described as follows: Kinase panel screening, overall selectivity. The conditions noted are these: 36 different kinases, single dose of 10 µM. The protocol: Next, we investigated kinase panel screening of 7d and 7b over 36 different kinases at a single dose of 10 µM (Figure 5). […] High selectivity over cKit might be an opportunity to avoid myelosuppression toxicity, which was reported from a dual FLT3/cKit inhibitor[19–22]. It is a valuable result to secure such a kinase selectivity profile considering the similarities of the same type III receptor tyrosine kinase (FMS, cKit and FLT3).
3. Evaluation of IC50 and Selected Kinase Profiling
We used Reaction Biology Corp. Kinase HotSpotSM service (www.reactionbiology.com) for IC50 determination of all compounds and kinase profile. Assay protocol: In a final reaction volume of 25 μL, Peptide substrate, [[…]], 5 µM, ATP 10 µM, FLT3(h) (5-10 […]
mU) is incubated with 25 mM Tris pH 7.5, 0.02 mM EGTA, 0.66 mg/mL myelin basic protein, 10 mM Mg Acetate and [γ-33P-ATP] (specific activity approx. 500 cpm/pmol, concentration as required). The reaction is initiated by the addition of the Mg-ATP mix. After incubation for 40 minutes at room temperature, the reaction is stopped by the addition of 5 μL of a 3% phosphoric acid solution. 10 μL of the reaction is then spotted onto a P30 filtermat and washed three times for 5 minutes in 75 mM phosphoric acid and once in methanol prior to drying and […]

In test [20] the target is T17, JAK3 (Homo sapiens, UniProt P52333).
T17 construct: purchased Reaction Biology Corp. (Kinase HotSpot service)
As to the kind of experiment: Reaction Biology Kinase HotSpot radiometric kinase assay.

In test [21] the target is T18, CDK4/cyclin D1 (Homo sapiens, UniProt P11802).
T18 construct: purchased Reaction Biology Corp. (Kinase HotSpot service)
Described as above.

The target of test [22] is T19, Aurora A (Homo sapiens, UniProt O14965).
T19 construct: purchased Reaction Biology Corp. (Kinase HotSpot service)
The description is as above.

pIC50: −log10 of the molar value.

Chain of FLT3-ITD (P36888 564-993, change not shown): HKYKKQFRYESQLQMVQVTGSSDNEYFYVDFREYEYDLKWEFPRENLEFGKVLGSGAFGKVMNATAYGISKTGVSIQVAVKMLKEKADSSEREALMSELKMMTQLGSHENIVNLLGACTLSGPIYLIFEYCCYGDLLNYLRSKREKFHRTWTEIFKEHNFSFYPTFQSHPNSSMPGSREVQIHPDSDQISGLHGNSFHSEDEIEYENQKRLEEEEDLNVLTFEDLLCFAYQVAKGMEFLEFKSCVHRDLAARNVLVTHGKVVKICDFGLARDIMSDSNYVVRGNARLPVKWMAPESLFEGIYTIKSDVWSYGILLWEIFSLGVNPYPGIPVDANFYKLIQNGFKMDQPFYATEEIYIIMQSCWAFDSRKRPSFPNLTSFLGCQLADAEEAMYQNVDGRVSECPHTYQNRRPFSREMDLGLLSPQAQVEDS
T17 sequence (P52333 whole entry): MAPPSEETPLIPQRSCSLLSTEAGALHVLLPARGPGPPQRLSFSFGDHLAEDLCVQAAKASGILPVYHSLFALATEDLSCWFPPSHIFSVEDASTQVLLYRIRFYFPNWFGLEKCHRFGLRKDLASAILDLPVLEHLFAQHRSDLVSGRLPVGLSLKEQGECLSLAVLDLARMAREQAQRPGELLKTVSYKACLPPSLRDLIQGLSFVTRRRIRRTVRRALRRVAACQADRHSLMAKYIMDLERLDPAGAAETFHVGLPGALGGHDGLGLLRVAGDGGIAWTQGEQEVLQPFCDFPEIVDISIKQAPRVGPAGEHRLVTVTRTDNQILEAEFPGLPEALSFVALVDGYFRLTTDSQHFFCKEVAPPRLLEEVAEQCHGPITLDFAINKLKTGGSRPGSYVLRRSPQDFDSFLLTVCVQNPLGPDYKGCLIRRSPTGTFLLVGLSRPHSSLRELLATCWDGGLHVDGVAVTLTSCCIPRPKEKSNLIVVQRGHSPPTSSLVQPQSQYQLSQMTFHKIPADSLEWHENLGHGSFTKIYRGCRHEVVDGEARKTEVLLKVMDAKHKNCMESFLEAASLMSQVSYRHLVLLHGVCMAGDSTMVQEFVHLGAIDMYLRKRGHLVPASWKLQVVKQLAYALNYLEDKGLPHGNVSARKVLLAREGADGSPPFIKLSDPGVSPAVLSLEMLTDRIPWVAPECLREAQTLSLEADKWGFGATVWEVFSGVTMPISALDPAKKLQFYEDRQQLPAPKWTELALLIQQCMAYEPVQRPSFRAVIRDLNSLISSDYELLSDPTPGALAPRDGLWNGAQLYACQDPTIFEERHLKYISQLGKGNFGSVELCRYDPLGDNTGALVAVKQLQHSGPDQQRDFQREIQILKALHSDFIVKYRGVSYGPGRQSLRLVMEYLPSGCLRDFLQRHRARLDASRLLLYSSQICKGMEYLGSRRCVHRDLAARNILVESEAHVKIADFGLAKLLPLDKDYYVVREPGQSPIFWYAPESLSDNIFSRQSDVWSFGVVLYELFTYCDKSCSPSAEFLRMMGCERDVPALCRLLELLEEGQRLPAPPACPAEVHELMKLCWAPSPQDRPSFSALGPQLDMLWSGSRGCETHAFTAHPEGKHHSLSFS
T15 sequence (Q06187 whole entry): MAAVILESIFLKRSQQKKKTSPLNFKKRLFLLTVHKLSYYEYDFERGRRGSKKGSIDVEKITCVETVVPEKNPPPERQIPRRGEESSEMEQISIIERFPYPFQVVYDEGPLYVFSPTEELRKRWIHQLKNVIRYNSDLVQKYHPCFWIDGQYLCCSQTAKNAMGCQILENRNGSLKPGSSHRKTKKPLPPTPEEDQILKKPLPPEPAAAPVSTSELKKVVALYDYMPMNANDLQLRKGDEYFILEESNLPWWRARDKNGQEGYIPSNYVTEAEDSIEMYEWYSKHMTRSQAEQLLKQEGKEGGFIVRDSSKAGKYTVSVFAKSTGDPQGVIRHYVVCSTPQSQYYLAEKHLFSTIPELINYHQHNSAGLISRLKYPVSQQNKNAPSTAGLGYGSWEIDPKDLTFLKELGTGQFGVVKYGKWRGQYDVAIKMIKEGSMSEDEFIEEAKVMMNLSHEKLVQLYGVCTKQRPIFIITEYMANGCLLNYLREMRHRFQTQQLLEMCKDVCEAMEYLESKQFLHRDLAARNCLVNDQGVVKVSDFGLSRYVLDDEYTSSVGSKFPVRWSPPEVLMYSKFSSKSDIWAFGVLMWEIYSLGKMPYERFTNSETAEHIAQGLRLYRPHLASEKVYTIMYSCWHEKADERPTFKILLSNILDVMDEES
T5 sequence (P17948 27-1338): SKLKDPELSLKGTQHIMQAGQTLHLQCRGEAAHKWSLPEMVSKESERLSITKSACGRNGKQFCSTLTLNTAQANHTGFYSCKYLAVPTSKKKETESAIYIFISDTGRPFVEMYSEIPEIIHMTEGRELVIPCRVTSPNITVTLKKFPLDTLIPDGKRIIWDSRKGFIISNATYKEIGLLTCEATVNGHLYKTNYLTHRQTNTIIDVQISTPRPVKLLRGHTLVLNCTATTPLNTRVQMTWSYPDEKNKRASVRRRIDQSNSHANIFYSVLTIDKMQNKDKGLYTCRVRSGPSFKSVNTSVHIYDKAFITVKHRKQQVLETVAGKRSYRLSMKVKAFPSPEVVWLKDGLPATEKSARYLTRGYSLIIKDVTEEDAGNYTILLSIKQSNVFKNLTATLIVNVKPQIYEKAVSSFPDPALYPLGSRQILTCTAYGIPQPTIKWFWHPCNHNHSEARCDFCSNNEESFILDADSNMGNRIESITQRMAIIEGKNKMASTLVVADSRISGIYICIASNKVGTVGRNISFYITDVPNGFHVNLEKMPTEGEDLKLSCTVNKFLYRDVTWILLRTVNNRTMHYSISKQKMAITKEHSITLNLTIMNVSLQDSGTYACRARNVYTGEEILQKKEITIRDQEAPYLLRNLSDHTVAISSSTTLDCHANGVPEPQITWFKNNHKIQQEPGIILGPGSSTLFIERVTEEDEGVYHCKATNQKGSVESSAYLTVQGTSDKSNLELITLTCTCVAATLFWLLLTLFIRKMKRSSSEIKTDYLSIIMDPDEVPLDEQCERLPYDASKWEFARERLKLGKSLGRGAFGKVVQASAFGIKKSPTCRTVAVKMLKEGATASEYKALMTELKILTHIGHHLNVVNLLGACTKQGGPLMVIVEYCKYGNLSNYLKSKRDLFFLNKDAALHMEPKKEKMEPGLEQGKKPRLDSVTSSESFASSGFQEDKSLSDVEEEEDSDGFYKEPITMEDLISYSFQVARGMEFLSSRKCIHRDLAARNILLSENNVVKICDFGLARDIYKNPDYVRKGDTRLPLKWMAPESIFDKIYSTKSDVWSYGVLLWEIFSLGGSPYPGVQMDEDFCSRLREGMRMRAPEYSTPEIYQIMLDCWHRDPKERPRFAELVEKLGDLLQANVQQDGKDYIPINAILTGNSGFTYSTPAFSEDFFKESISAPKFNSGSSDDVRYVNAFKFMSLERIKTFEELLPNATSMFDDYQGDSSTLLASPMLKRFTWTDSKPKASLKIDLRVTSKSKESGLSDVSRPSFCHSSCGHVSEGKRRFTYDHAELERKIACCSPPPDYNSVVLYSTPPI
T18 sequence (P11802 whole entry): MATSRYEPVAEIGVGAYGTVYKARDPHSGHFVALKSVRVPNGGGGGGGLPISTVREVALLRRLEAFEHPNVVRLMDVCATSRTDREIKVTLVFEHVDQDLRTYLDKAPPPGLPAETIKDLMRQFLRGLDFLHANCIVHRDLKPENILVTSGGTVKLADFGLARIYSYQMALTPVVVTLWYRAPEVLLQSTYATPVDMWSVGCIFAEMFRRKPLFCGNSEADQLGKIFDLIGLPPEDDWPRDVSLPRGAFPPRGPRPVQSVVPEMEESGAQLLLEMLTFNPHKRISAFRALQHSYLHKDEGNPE
T18 sequence (P24385 whole entry partner): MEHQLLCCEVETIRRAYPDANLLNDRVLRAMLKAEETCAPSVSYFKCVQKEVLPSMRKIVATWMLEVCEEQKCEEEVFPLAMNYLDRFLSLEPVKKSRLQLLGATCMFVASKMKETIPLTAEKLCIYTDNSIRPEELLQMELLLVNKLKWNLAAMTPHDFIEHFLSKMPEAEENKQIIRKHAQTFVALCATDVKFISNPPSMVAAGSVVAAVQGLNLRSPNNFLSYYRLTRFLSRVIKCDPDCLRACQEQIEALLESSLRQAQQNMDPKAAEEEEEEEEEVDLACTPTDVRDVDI
T16 sequence (P30530 26-894 R499C): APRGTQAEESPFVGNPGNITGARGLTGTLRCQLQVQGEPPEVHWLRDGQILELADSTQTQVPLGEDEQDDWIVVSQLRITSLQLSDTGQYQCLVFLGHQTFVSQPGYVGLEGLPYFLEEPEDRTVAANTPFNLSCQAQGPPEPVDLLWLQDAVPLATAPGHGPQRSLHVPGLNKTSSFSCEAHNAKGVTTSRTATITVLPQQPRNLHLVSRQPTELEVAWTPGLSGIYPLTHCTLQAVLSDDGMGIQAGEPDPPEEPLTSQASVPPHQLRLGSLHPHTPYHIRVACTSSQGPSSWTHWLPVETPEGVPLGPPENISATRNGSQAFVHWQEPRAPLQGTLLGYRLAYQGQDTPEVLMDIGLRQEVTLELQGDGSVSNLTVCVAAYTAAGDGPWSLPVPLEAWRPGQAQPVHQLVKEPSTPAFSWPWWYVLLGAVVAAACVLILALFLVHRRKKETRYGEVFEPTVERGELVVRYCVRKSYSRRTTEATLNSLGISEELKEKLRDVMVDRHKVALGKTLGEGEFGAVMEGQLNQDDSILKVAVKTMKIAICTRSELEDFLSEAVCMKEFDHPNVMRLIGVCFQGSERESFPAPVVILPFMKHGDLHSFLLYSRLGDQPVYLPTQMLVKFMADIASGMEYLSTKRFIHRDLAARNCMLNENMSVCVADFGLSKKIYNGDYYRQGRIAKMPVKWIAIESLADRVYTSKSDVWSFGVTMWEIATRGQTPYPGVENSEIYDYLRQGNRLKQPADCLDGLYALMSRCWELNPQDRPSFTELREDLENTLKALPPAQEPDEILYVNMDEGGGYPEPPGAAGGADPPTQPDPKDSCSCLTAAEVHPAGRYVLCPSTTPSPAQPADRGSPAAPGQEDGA

For `Cc1oncc1C(=O)Nc1ccc2cnc(-c3cc(N4CCN(C)CC4)cc(C(F)(F)F)c3)nc2c1` [Compound 7d, 5-methyl-N-(2-(3-(4-methylpiperazin-1-yl)-5-(trifluoromethyl)phenyl)quinazolin-7-yl)isoxazole-4-carboxamide], the inhibition at 10 µM is 95.2% in test [1] (FLT3-ITD, 10 µM); 13.2% in [2]; 17% in test [3]; 19.7% in test [4]; 19% in test [5]; 5.23% in test [6]. Also, the inhibition at 10 µM was 0% in test [7]; 13.5% in test [8]; 19.5% in [9]; 2.5% in test [10]; 12.8% in [11]; 20.5% in test [12]. The inhibition at 10 µM is 1% in [13]; 0% in test [14]; 15% in test [16]; 17.5% in test [17]; 10.1% in [18]; 0.8% in test [20]. Further, the inhibition at 10 µM in [21] was found to be 3.01%; in test [22], 20.1%. Also, the pIC50 is 6.52 in [1] (read-out: IC50 against FLT3-ITD) and 6.31 in [15]. Also, in test [19], the “activity on other kinases in panel (in words)” value is listed as “almost no activity”.
